These results are taken from patent US12209102B2, “Heterocyclic compounds and uses thereof” (Kumquat Biosciences Inc., priority 2022, dated 2025).

Usually IC50 stands for the concentration that inhibits the measured activity by half.

What all share (type): biochemical
One experiment addresses T1, K-Ras G12S (Homo sapiens, UniProt P01116, G12S).
T1 construct: made in house; host or cells: E. coli BL21 (DE3)
As to the kind of experiment: HTRF resonance energy transfer assay, K-Ras G12S / SOS1 interaction. As to conditions: HTRF assay of Example 5; read-out: IC50 against K-Ras G12S. An excerpt: (§1) This assay can be also used to assess a selective inhibition or reduction of signaling output of a mutant Ras protein relative to a wildtype, or relative to a different mutant Ras protein. For example, the equilibrium interaction of wildtype Kras or K-Ras mutant (e.g., wildtype or a mutant thereof) with SOS1 (e.g., hSOS1) can be assessed as a proxy or an indication for a subject compound's ability to bind and inhibit Ras protein. HTRF assay detects from (i) a fluorescence resonance energy transfer (FRET) donor (e.g., antiGST-Europium) that is bound to GST-tagged K-Ras mutant to (ii) a FRET acceptor (e.g., anti-6His-XL665) bound to a His-tagged hSOS1.
(§2) The assay buffer can contain˜5 mM HEPES pH 7.4, ˜150 mM NaCl, ˜ 1 mM DTT, 0.05% BSA and 0.0025%(v/v) Igepal. A Ras working solution is prepared in an assay buffer containing typically a suitable amount of the protein construct (e.g., GST-tagged K-Ras mutant) and the FRET donor (e.g., antiGST-Eu(K) from Cisbio, France). A SOS1 working solution is prepared in an assay buffer containing suitable amount of the protein construct (e.g., His-hSOS1) and the FRET acceptor (e.g., anti-6His-XL665 from Cisbio, France). A suitable amount of the protein construct will depend on the range of activity or range of IC50 values being detected or under investigation. For detecting IC50 within a range of 500 nM, the protein constructs of the same range of molarity can be utilized.
(§3) A fixed volume of DMSO with or without test compound is transferred into a 384-well plate. Ras working solution is added to all wells of the test plate. SOS1 working solution is added to all wells except for those that are subsequently filled the inhibitor control solution. Upon incubation for about 10 minutes or longer, the fluorescence is measured with a M1000Pro plate reader (Tecan) using HTRF detection (excitation 337 nm, emission 1: 620 nm, emission 2: 665 nm). Compounds are tested in duplicates at different concentrations (for example, 10 μM, 2.5 μM, 0.63 μM, 0.16 μM, 0.04 μM, 0.01 μM test compound). The ratiometric data (i.e., emission 2 divided by emission 1) is used to calculate IC50 values against Ras using GraphPad Prism (GraphPad software). Following this general procedure, samples were tested with or without a subject compound disclosed herein including compounds exemplified in Table 1 to assess their abilities to inhibit a K-Ras mutant relative to another mutant or WT. Signaling output measured in terms of IC50 values can be obtained, a ratio of IC50 against one mutant relative to another mutant can be calculated. For instance, a selective reduction of K-Ras G12D signaling output can be evidenced by a ratio greater than one. In particular, a selective reduction of K-Ras G12D signaling relative to K-Ras WT signaling is evidenced as the ratio of IC50 (against K-Ras WT) to IC50 (against K-Ras G12D) is greater than 1.

Another experiment addresses T2, K-Ras G12V (Homo sapiens, UniProt P01116, G12V).
T2 construct: made in house; host or cells: E. coli BL21 (DE3)
As to the kind of experiment: HTRF resonance energy transfer assay, K-Ras G12V / SOS1 interaction. As to conditions: HTRF assay of Example 5; read-out: IC50 against K-Ras G12V.
Text: as §1, §2, §3
On the technique in general: In TR-FRET formats the signal depends on donor and acceptor labels being close together.

A further experiment has as its target T3, K-Ras WT (Homo sapiens, UniProt P01116).
T3 construct: made in house; host or cells: E. coli BL21 (DE3)
Description: HTRF resonance energy transfer assay, K-Ras WT / SOS1 interaction. As to conditions: HTRF assay of Example 5; read-out: IC50 against K-Ras WT.
Text: as §1, §2, §3

T1 sequence (P01116 1-188 isoform P01116-2 G12S): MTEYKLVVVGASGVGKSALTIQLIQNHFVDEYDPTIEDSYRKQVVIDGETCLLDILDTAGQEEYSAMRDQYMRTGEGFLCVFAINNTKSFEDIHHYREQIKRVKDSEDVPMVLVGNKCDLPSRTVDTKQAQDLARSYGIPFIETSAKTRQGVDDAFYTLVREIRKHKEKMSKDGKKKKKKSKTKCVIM
T2 sequence (P01116 1-188 isoform P01116-2 G12V): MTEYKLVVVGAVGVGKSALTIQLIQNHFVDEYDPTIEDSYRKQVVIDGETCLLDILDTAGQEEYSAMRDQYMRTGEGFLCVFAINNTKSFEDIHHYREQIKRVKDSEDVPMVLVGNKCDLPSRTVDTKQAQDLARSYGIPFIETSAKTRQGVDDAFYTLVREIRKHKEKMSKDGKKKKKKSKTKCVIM
T3 sequence (P01116 1-188 isoform P01116-2): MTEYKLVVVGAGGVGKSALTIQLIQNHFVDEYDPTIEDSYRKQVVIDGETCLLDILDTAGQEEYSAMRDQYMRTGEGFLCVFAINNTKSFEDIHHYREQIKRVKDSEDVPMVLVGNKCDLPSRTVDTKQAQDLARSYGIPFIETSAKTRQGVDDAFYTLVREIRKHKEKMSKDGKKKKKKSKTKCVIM

Take `N#Cc1c(N)sc2c(F)ccc(-c3c(Cl)c4c5c(nc(OC[C@@]67CCCN6C[C@H](F)C7)nc5c3F)N(CC(F)F)C(c3cnco3)CO4)c12` (single isomer, unassigned) [Compound 860]: the IC50 at K-Ras G12S, on K-Ras G12V and at K-Ras WT was less than 100 nM each time.
Regarding `N#Cc1c(N)sc2c(F)ccc(-c3c(Cl)c4c5c(nc(OC[C@@]67CCCN6C[C@H](F)C7)nc5c3F)N(CC(F)F)[C@H](CNC=O)CO4)c12` [Compound 627, N-(((5R)-9-(2-amino-3-cyano-7-fluorobenzo[b]thiophen-4-yl)-8-chloro-4-(2,2-difluoroethyl)-10-fluoro-2-(((2R,7aS)-2-fluorotetrahydro-1H-pyrrolizin-7a(5H)-yl)methoxy)-5,6-dihydro-4H-[1,4]oxazepino[5,6,7-de]quinazolin-5-yl)methyl)formamide], the IC50 at K-Ras G12S and at K-Ras G12V was less than 100 nM throughout.
Consider `C=C(F)C1COc2c(Cl)c(-c3ccc(F)c4sc(N)c(C#N)c34)c(F)c3nc(OC[C@@]45CCCN4C[C@H](F)C5)nc(c23)N1CC(F)F` (stereo partly drawn) [Compound 651, 2-amino-4-(8-chloro-4-(2,2-difluoroethyl)-10-fluoro-2-(((2R,7aS)-2-fluorotetrahydro-1H-pyrrolizin-7a(5H)-yl)methoxy)-5-(1-fluorovinyl)-5,6-dihydro-4H-[1,4]oxazepino[5,6,7-de]quinazolin-9-yl)-7-fluorobenzo[b]thiophene-3-carbonitrile], for which, at K-Ras G12V, the IC50 is less than 100 nM.
`N#Cc1c(N)sc2c(F)ccc(-c3c(Cl)c4c5c(nc(OC[C@@]67CCCN6C[C@H](F)C7)nc5c3F)N(CC(F)F)C(C3CCN3C(=O)C3CN3)CO4)c12` (stereo partly drawn) [Compound 666, 2-amino-4-(5-(1-(aziridine-2-carbonyl)azetidin-2-yl)-8-chloro-4-(2,2-difluoroethyl)-10-fluoro-2-(((2R,7aS)-2-fluorotetrahydro-1H-pyrrolizin-7a(5H)-yl)methoxy)-5,6-dihydro-4H-[1,4]oxazepino[5,6,7-de]quinazolin-9-yl)-7-fluorobenzo[b]thiophene-3-carbonitrile]: the IC50 on K-Ras G12S and at K-Ras WT was less than 100 nM throughout.
Regarding `N#Cc1c(N)sc2c(F)ccc(-c3c(Cl)c4c5c(nc(OC[C@@]67CCCN6C[C@H](F)C7)nc5c3F)N(CC(F)F)C(C3CN(C(=O)C5CN5)C3)CO4)c12` (stereo partly drawn) [Compound 762, 2-amino-4-(5-(1-(aziridine-2-carbonyl)azetidin-3-yl)-8-chloro-4-(2,2-difluoroethyl)-10-fluoro-2-(((2R,7aS)-2-fluorotetrahydro-1H-pyrrolizin-7a(5H)-yl)methoxy)-5,6-dihydro-4H-[1,4]oxazepino[5,6,7-de]quinazolin-9-yl)-7-fluorobenzo[b]thiophene-3-carbonitrile], the IC50 on K-Ras G12S, at K-Ras G12V and at K-Ras WT was less than 100 nM in each case.
Regarding `N#Cc1c(N)sc2c(F)ccc(-c3c(Cl)c4c5c(nc(OC[C@@]67CCCN6C[C@H](F)C7)nc5c3F)N(CC(F)F)[C@@H](CNC(=O)CC3COC3)CO4)c12` [Compound 766, N-(((5S)-9-(2-amino-3-cyano-7-fluorobenzo[b]thiophen-4-yl)-8-chloro-4-(2,2-difluoroethyl)-10-fluoro-2-(((2R,7aS)-2-fluorotetrahydro-1H-pyrrolizin-7a(5H)-yl)methoxy)-5,6-dihydro-4H-[1,4]oxazepino[5,6,7-de]quinazolin-5-yl)methyl)-2-(oxetan-3-yl)acetamide], the concentration for half-maximal inhibition (IC50) at K-Ras G12S, at K-Ras G12V and on K-Ras WT was less than 100 nM throughout.
As for `N#Cc1c(N)sc2c(F)ccc(-c3c(Cl)c4c5c(nc(OC[C@@]67CCCN6C[C@H](F)C7)nc5c3F)N(CC(F)F)C(c3cncs3)CO4)c12` (stereo partly drawn) [Compound 789, 2-amino-4-(8-chloro-4-(2,2-difluoroethyl)-10-fluoro-2-(((2R,7aS)-2-fluorotetrahydro-1H-pyrrolizin-7a(5H)-yl)methoxy)-5-(thiazol-5-yl)-5,6-dihydro-4H-[1,4]oxazepino[5,6,7-de]quinazolin-9-yl)-7-fluorobenzo[b]thiophene-3-carbonitrile], the concentration for half-maximal inhibition (IC50) at K-Ras G12S, on K-Ras G12V and on K-Ras WT was less than 100 nM each time.
As to `N#Cc1c(N)sc2c(F)ccc(-c3c(Cl)c4c5c(nc(OC[C@@]67CCCN6C[C@H](F)C7)nc5c3F)N(C3C5CC3N(C(=O)C(F)F)C5)CCO4)c12` (stereo partly drawn) [Compound 886, 2-amino-4-(8-chloro-4-(2-(2,2-difluoroacetyl)-2-azabicyclo[2.1.1]hexan-5-yl)-10-fluoro-2-(((2R,7aS)-2-fluorotetrahydro-1H-pyrrolizin-7a(5H)-yl)methoxy)-5,6-dihydro-4H-[1,4]oxazepino[5,6,7-de]quinazolin-9-yl)-7-fluorobenzo[b]thiophene-3-carbonitrile], the IC50 on K-Ras G12S and at K-Ras WT was less than 100 nM each time.
As for `N#Cc1c(N)sc2c(F)ccc(-c3c(Cl)c4c5c(nc(OC[C@@]67CCCN6C[C@H](F)C7)nc5c3F)N(CC(F)F)C(C3CCCN3C(=O)[C@H]3CN3)CO4)c12` (stereo partly drawn) [Compound 1007, 2-amino-4-(5-(1-((R)-aziridine-2-carbonyl)pyrrolidin-2-yl)-8-chloro-4-(2,2-difluoroethyl)-10-fluoro-2-(((2R,7aS)-2-fluorotetrahydro-1H-pyrrolizin-7a(5H)-yl)methoxy)-5,6-dihydro-4H-[1,4]oxazepino[5,6,7-de]quinazolin-9-yl)-7-fluorobenzo[b]thiophene-3-carbonitrile], the IC50 at K-Ras WT is less than 100 nM.
For `CC(OC(F)F)C12CC(N3CCOc4c(Cl)c(-c5ccc(F)c6sc(N)c(C#N)c56)c(F)c5nc(OC[C@@]67CCCN6C[C@H](F)C7)nc3c45)(C1)C2` (stereo partly drawn) [Compound 1081, 2-amino-4-(8-chloro-4-(3-(1-(difluoromethoxy)ethyl)bicyclo[1.1.1]pentan-1-yl)-10-fluoro-2-(((2R,7aS)-2-fluorotetrahydro-1H-pyrrolizin-7a(5H)-yl)methoxy)-5,6-dihydro-4H-[1,4]oxazepino[5,6,7-de]quinazolin-9-yl)-7-fluorobenzo[b]thiophene-3-carbonitrile], the IC50 on K-Ras G12S, at K-Ras G12V and on K-Ras WT was less than 100 nM throughout.
Regarding `N#Cc1c(N)sc2c(F)ccc(-c3c(Cl)c4c5c(nc(OC[C@@]67CCCN6C[C@H](F)C7)nc5c3F)N(CC(F)F)[C@H](C(F)F)CO4)c12` [Compound 1099, 2-amino-4-((S)-8-chloro-4-(2,2-difluoroethyl)-5-(difluoromethyl)-10-fluoro-2-(((2R,7aS)-2-fluorotetrahydro-1H-pyrrolizin-7a(5H)-yl)methoxy)-5,6-dihydro-4H-[1,4]oxazepino[5,6,7-de]quinazolin-9-yl)-7-fluorobenzo[b]thiophene-3-carbonitrile], the IC50 at K-Ras G12S, on K-Ras G12V and on K-Ras WT was less than 100 nM throughout.
On to `C[C@@H](O)[C@@H]1COc2c(Cl)c(-c3ccc(F)c4sc(N)c(C#N)c34)c(F)c3nc(OC[C@@]45CCCN4C[C@H](F)C5)nc(c23)N1CC(F)F` [Compound 1111, 2-amino-4-((5S)-8-chloro-4-(2,2-difluoroethyl)-10-fluoro-2-(((2R,7aS)-2-fluorotetrahydro-1H-pyrrolizin-7a(5H)-yl)methoxy)-5-((R)-1-hydroxyethyl)-5,6-dihydro-4H-[1,4]oxazepino[5,6,7-de]quinazolin-9-yl)-7-fluorobenzo[b]thiophene-3-carbonitrile], for which, on K-Ras G12V, the IC50 is less than 100 nM.
For the compound `C[C@@H]1CC(CO)Oc2c(Cl)c(-c3ccc(F)c4sc(N)c(C#N)c34)c(F)c3nc(OC[C@@]45CCCN4C[C@H](F)C5)nc(c23)N1` (stereo partly drawn) [Compound 1210, 2-amino-4-((5R)-9-chloro-11-fluoro-2-(((2R,7aS)-2-fluorotetrahydro-1H-pyrrolizin-7a(5H)-yl)methoxy)-7-(hydroxymethyl)-5-methyl-4,5,6,7-tetrahydro-[1,5]oxazocino[4,3,2-de]quinazolin-10-yl)-7-fluorobenzo[b]thiophene-3-carbonitrile], the IC50 on K-Ras G12V is less than 100 nM.
